According to US10981932B2, “Macrocyclic indole derivatives” (Bayer Aktiengesellschaft, priority 2016, dated 2021):
Where a name gives a salt, the structure may show the parent alone.

Tests used:
SUDHL10 [1] = test: Induction of cytotoxicity (CellTiter-Glo, 5 h), SUDHL10
SUDHL5 [2] = test: Induction of caspase-3/7 activity (Caspase-Glo 3/7), SUDHL5; assay type: cell-based; conditions: caspase-3/7 induction, SUDHL5 cells, 3 h treatment, median
Method in brief: (§1)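 Caspase-Glo 3/7 luminescence, 3 h compound exposure, 37 °C, humidified. Minus medium-only blank. EC50 fit: C0=1, plateau = reference max induction.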

BCL-XL = target: T1, BCL-XL (Homo sapiens, UniProt Q07817); test: Protein-protein interaction assay BCL-XL/Bad BH3 peptide (BCL-XL assay), TR-FRET; assay type: binding; conditions: His-BCL-XL / Bad BH3-derived peptide
T1 construct: BCL-XL (amino acids 1-212, C-terminal fused to a hexahistidine (6×His) tag); purchased BPS Bioscience (San Diego, Calif., USA); host or cells: E. coli
Description: Protein-Protein Interaction Assay: BCL-XL/Bad BH3 Peptide (BCL-XL Assay)
The dose-dependent inhibition by the compounds described in this invention of the interaction between […] and the BH3 domain of Bad (both human) was determined using a steady state binding competition assay with time-resolved fluorescence energy transfer (TR-FRET) readout. For that purpose BCL-2 (amino acids 1-211, C-terminal fused to a hexahistidine (6×His) tag (SEQ ID NO: 3) and a synthetic Bad BH3-derived peptide of sequence Biotin-PEG2-PEG2-NLWAAQRYGRELRR-NIe-SDEFVDSFKK-amide (SEQ ID NO: 2) served as protein receptor and tracer ligand respectively. The recombinant BCL-2 protein (expressed in E. coli) was purchased from BPS Bioscience (San Diego, Calif., USA). The Bad BH3-derived peptide can be obtained from e.g. Biosyntan (Berlin, Germany).
In the assay 11 different concentrations of each compound (0.1 nM, 0.33 nM, 1.1 nM, 3.8 nM, 13 nM, 44 nM, 0.15 μM, 0.51 μM, 1.7 μM, 5.9 μM and 20 μM) were typically measured as duplicates in the same microtiter plate. For that, 100-fold concentrated DMSO solutions were prepared by serial dilutions (1:3.4) of a 2 mM stock solution in a clear, 384-well microtiter plate (Greiner Bio-One, Frickenhausen, Germany). From there, 50 nl were transferred in a dark test plate (Greiner Bio-One. Frickenhausen, Germany). The assay was initiated by addition of 2 μl of a 2,5-fold concentrated Hs-BCL-XL solution (usually for a 1 nM end concentration in 5 μl reaction volume) in aqueous assay buffer [50 mM Tris/HCl pH 7, 100 mM sodium chloride (NaCl), 50 mM potassium fluoride (KF), 0.005% Tween-20, 2 mM DTT, 0.1% bovine gamma globulin (BGG)] to the compounds in the assay plate. This was followed by a 10-minute incubation step at 22° C. for pre-equilibration of the putative complex between His-BCL-XL and the compounds.
The mixture was incubated in the dark for one hour at 22° C. and then overnight at 4° C. The formation of BCL-XL/Bad complexes was determined by measuring the resonance energy transfer of the anti-His- Eu-cryptate antibody to the streptavidin-XL665 present in the reaction. For that purpose, the fluorescence emission at 620 nm and 665 nm after excitation at 330-350 nm was measured in a TR-FRET measuring instrument, for instance a Rubystar or a Pherastar (both from BMG Lab Technologies, Offenburg, Germany) or a Viewlux (Perkin-Elmer). The ratio of the emission at 665 nm and at 622 nm was used as indicator of the amount of BCL-XL/Bad complexes present.
The resulting data (ratio) were normalized, taking 0% inhibition as the mean value of control measurements (usually 32 data points) where all reagents were included. In this case 50 nl DMSO were used instead of compounds. A 100% inhibition corresponded to the mean value of control measurements (usually 32 data points) where all reagents except BCL-XL were included. IC50 values were determined by regression analysis based on a 4 parameter equation (minimum, maximum, IC50, Hill; Y=Max+(Min−Max)/(1+(X/IC50)^Hill) using the Screener Software (Genedata).

SUDHL5 [3] = test: Induction of cytotoxicity (CellTiter-Glo, 5 h), SUDHL5
SUDHL5 [4] = test: Anti-proliferative effect (CellTiter-Glo, 72 h), SUDHL5; assay type: cell-based; conditions: SUDHL5 cells, antiproliferation, 72 h incubation, median, read-out: Antiproli SUDHL5 [M] (median)
Method in brief: (§2)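 Viable cells quantified with CellTiter-Glo after 72 h at 37 °C; rim wells excluded; day 0 plate as baseline.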

SUDHL10 [5] = test: Anti-proliferative effect (CellTiter-Glo, 72 h), SUDHL10; assay type: cell-based; conditions: SUDHL10 cells, antiproliferation, 72 h incubation, median, read-out: Antiproli SUDHL10 [M] (median)
Method in brief: as §2

SUDHL10 [6] = test: Induction of caspase-3/7 activity (Caspase-Glo 3/7), SUDHL10; assay type: cell-based; conditions: caspase-3/7 induction, SUDHL10 cells, 3 h treatment, median
Method in brief: as §1

[7] = read-out: Cytotox SUDHL10 [M] (median), SUDHL10 cells, cytotoxicity induction, CellTiter-Glo, 5 h incubation, median
[8] = read-out: Cytotox SUDHL5 [M] (median), SUDHL5 cells, cytotoxicity induction, CellTiter-Glo, 5 h incubation, median
[9] = Homo sapiens, SU-DHL10, 5 h, read-out: Cytotox SUDHL10 [M] (median), SUDHL10 cells, cytotoxicity induction, CellTiter-Glo, 5 h incubation, median
[10] = Homo sapiens, SU-DHL-5, 5 h, read-out: Cytotox SUDHL5 [M] (median), SUDHL5 cells, cytotoxicity induction, CellTiter-Glo, 5 h incubation, median

T1 sequence (Q07817 1-212): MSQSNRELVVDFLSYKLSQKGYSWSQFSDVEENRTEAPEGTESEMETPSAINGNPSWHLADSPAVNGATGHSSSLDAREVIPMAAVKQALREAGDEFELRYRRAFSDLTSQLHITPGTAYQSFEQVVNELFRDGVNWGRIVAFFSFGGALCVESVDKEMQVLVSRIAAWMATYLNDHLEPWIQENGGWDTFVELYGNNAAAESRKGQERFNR

Structure (SMILES) | IC50 (SUDHL10 [1]; [7]) [M] | EC50 (SUDHL5 [2]) [µM] | IC50 (BCL-XL) [µM] | IC50 (SUDHL5 [3]; [8]) [M] | IC50 (SUDHL5 [4]) [M] | IC50 (SUDHL10 [5]) [M] | EC50 (SUDHL10 [6]) [µM] | IC50 (SUDHL10 [5]; Homo sapiens, SU-DHL10, 72 h) [M] | IC50 (SUDHL10 [1]; [9]) [M] | EC50 (SUDHL5 [2]; Homo sapiens, SU-DHL-5, 3 h) [µM] | IC50 (SUDHL5 [3]; [10]) [M] | IC50 (SUDHL5 [4]; Homo sapiens, SU-DHL-5, 72 h) [M] | EC50 (SUDHL10 [6]; Homo sapiens, SU-DHL10, 3 h) [µM]
Cc1c2c(nn1CCN1CCOCC1)CN(C)CCCn1c(C(=O)O)c(CCCOc3cccc4ccccc34)c3cccc-2c31 (single isomer, unassigned; enantiomer 2) [Example 061, 7,11-dimethyl-10-[2-(morpholin-4-yl)ethyl]-1-[3-(naphthalen-1-yloxy)propyl]-4,5,6,7,8,10-hexahydropyrazolo[3′,4′:7,8][1,5]diazecino[9,10,1-hi]indole-2-carboxylic Acid (Enantiomer 2)] | 1.75e-05 | 21.9 | > 20 | 1.63e-05 | 8.04e-06 | 8.37e-06 | 18.6 |  |  |  |  |  | 
Cc1c2c(nn1CCN1CCOCC1)CN(C)CCCn1c(C(=O)O)c(CCCOc3cccc4ccccc34)c3cccc-2c31 (single isomer, unassigned; enantiomer 1) [Example 060, 7,11-dimethyl-10-[2-(morpholin-4-yl)ethyl]-1-[3-(naphthalen-1-yloxy)propyl]-4,5,6,7,8,10-hexahydropyrazolo[3′,4′:7,8][1,5]diazecino[9,10,1-hi]indole-2-carboxylic Acid (Enantiomer 1)] | 7.87e-06 | 5.13 | > 20 | 4.3e-06 | 1.79e-06 |  | 8.54 | 1.16e-05 |  |  |  |  | 
CCc1c2c(nn1C)CN(C)CCCn1c(C(=O)O)c(CCCOc3cccc4ccccc34)c3cccc-2c31 (racemic) [Example 141, (rac)-11-ethyl-7,10-dimethyl-1-[3-(1-naphthyloxy)propyl]-4,5,6,7,8,10-hexahydropyrazolo[3′,4′:7,8][1,5]diazecino[9,10,1-hi]indole-2-carboxylic Acid] |  |  | > 20 |  |  |  |  | 1e-05 | 7.87e-06 | 4.08 | 3.66e-06 | 1.39e-06 | 7.3
COCCn1nc2c(c1C1CC1)-c1cccc3c(CCCOc4cccc5ccccc45)c(C(=O)O)n(c13)CCCCOC2 (single isomer, unassigned; enantiomer 1) [Example 085, 3-Cyclopropyl-2-(2-methoxyethyl)-7-[3-(naphthalen-1-yloxy)propyl]-2,10,11,12,13,15-hexahydropyrazolo[4′,3′:9,10][1,6]oxazacycloundecino[8,7,6-hi]indole-8-carboxylic acid-N-ethylethanamine Salt (Enantiomer 1)] |  | 3.59 | > 20 | 3.91e-06 | 6.22e-06 | 3.08e-06 | 15.5 |  | 1.97e-05 |  |  |  | 
Cc1c2c(nn1C)COCCCCn1c(C(=O)O)c(CCCOc3cccc4ccccc34)c3cccc-2c31 (racemic) [Example 1-36, (rac)-2,3-dimethyl-7-[3-(naphthalen-1-yloxy)propyl]-2,10,11,12,13,15-hexahydropyrazolo[4′,3′:9,10][1,6]oxazacycloundecino[8,7,6-hi]indole-8-carboxylic Acid] |  |  | > 20 |  |  |  |  | 6.09e-06 | 1.4e-05 | 3.94 | 3.69e-06 | 2.63e-06 | 7.51
Cn1nc(COc2ccc(N3CCN(C(=O)C4CC4)CC3)cc2)c2c1COCCCCn1c(C(=O)O)c(CCCOc3cccc4ccccc34)c3cccc-2c31 (single isomer, unassigned; enantiomer 1) [Example 1-22, 3-({4-[4-(cyclopropylcarbonyl)piperazin-1-yl]phenoxy}methyl)-1-methyl-7-[3-(naphthalen-1-yloxy)propyl]-1,10,11,12,13,15-hexahydropyrazolo[4′,3′:9,10][1,6]oxazacycloundecino[8,7,6-hi]indole-8-carboxylic Acid (Enantiomer 1)] | 2.7e-06 | 1.56 | > 20 | 1.37e-06 | 1.58e-06 | 2.19e-06 | 2.21 |  |  |  |  |  | 
Cc1nn(C)c2c1-c1cccc3c(CCCOc4cccc5cc(F)ccc45)c(C(=O)O)n(c13)CCCCOC2 (single isomer, unassigned; enantiomer 1) [Example 019, 7-{3-[(6-fluoronaphthalen-1-yl)oxy]propyl}-1,3-dimethyl-1,10,11,12,13,15-hexahydropyrazolo[4′,3′:9,10][1,6]oxazacycloundecino[8,7,6-hi]indole-8-carboxylic Acid-N-ethylethanamine Salt (Enantiomer 1)] | 3.76e-06 | 1.52 | > 20 | 1.68e-06 | 3.65e-06 |  | 5.16 | 4.45e-06 |  |  |  |  | 
CN1CCCn2c(C(=O)O)c(CCCOc3cccc4ccccc34)c3cccc(c32)-c2c(COc3ccc(N4CCN(S(C)(=O)=O)CC4)cc3)nn(C)c2C1 (single isomer, unassigned; enantiomer 1) [Example 1-46, (+)-7,9-dimethyl-11-({4-[4-(methylsulfonyl)piperazin-1-yl]phenoxy}methyl)-1-[3-(naphthalen-1-yloxy)propyl]-4,5,6,7,8,9-hexahydropyrazolo[3′,4′:7,8][1,5]diazecino[9,10,1-hi]indole-2-carboxylic Acid (Enantiomer 1)] | 2.29e-06 | 0.776 | > 20 | 1.53e-06 | 9.89e-07 | 8.61e-07 | 1.74 |  |  |  |  |  | 
Cc1ccc2c(CCCOc3cccc4ccccc34)c(C(=O)O)n3c2c1-c1c(nn(C)c1C)CN(C)CCC3 (single isomer, unassigned; enantiomer 1) [Example 073, 7,10,11,12-tetramethyl-1-[3-(naphthalen-1-yloxy)propyl]-4,5,6,7,8,10-hexahydropyrazolo[3′,4′:7,8][1,5]diazecino[9,10,1-hi]indole-2-carboxylic Acid (Enantiomer 1)] | 3.67e-06 | 2.12 | > 20 | 1.79e-06 | 3.23e-06 |  | 2.94 | 6.86e-06 |  |  |  |  | 
